# Biological target: T1, human B1R (Homo sapiens, UniProt P46663)
# T1 construct: expressed in transfected cells; host or cells: CHO K1 cells (Chinese Hamster Ovary), stably transfected
# T1 sequence (P46663 1-353): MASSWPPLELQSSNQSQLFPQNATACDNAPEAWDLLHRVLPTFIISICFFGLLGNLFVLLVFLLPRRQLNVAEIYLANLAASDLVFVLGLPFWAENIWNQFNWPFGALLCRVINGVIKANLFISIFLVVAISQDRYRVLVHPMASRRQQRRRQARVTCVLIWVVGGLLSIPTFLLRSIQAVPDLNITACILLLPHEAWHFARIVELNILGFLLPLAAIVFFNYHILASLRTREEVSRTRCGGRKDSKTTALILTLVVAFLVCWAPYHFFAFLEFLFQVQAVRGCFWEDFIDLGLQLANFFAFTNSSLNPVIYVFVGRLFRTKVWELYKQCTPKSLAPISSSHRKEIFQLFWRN
# Assay: Functional assay at bradykinin receptor 1 (B1R): Ca2+ fluorescence (Fluo-4) in FLIPR/Novostar, antagonist mode
# Type: cell-based
# Conditions: test substance 10 µM; CHO K1 cells stably transfected with human B1R gene (hB1R-Zellen); agonist Lys-Des-Arg9-Bradykinin at EC80; % inhibition relative to maximal achievable inhibition
# Procedure, shortened: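 CHO K1 cells stably expressing human B1R were loaded with Fluo-4 and preincubated 6–20 min with test compound before Lys-Des-Arg9-bradykinin at its EC80. Peak fluorescence (ex 488/em 540 nm) gave % inhibition versus maximal inhibition; IC50 from several concentrations, n=2 or 3.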
row,% Inhibierung (human B1R) bei 10 µM,Compound
1,99%,"N-[4-(Cyclopropylamino)-2,2-dimethyl-cyclohexyl]-2-[3-[[(2,3-dichlor-phenyl)sulfonyl]-methyl]-[1,2,4]oxadiazol-5-yl]-acetamid [CC-123]"

# Same assay, conditions: test substance 10 µM; CHO K1 cells stably transfected with human B1R gene (hB1R-Zellen); agonist Lys-Des-Arg9-Bradykinin at EC80; % inhibition relative to maximal achievable inhibition; read-out: % Inhibierung (human B1R) bei 10 µM
row,Compound,inhibition at 10 µM
1,"Cc1cccc(Cl)c1S(=O)(=O)Cc1noc(C(=O)NC2CCC(N3CCCC3)CC2(C)C)n1 (stereo not drawn) [CC-20, 3-[[(2-Chlor-6-methyl-phenyl)sulfonyl]-methyl]-N-(2,2-dimethyl-4-pyrrolidin-1-yl-cyclohexyl)-[1,2,4]oxadiazol-5-carbonsäure amid]",89%
2,"COCCN1CCC(NC(=O)Cc2nc(CS(=O)(=O)c3cccc(Cl)c3Cl)no2)C(C)(C)C1 (stereo not drawn) [CC-72, 2-[3-[[(2,3-Dichlor-phenyl)sulfonyl]-methyl]-[1,2,4]oxadiazol-5-yl]-N-[1-(2-methoxy-ethyl)-3,3-di-methyl-piperidin-4-yl]-acetamid]",60%
3,"Cc1cc(S(=O)(=O)Cc2noc(CC(=O)NC3CCN(C)CC3(C)C)n2)c(C)cc1Cl (stereo not drawn) [CC-105, 2-[3-[[(4-Chlor-2,5-dimethyl-phenyl)sulfonyl]-methyl]-[1,2,4]oxadiazol-5-yl]-N-(1,3,3-trimethyl-piperidin-4-yl)-acetamid]",88%
4,"Cc1cc(S(=O)(=O)Cc2noc(CC(=O)NC3CCNCC3(C)C)n2)c(C)cc1Cl (stereo not drawn) [CC-62, 2-[3-[[(4-Chlor-2,5-dimethyl-phenyl)sulfonyl]-methyl]-[1,2,4]oxadiazol-5-yl]-N-(3,3-dimethyl-piperidin-4-yl)-acetamid]",54%
5,"COc1cc(C)c(S(=O)(=O)Cc2cn(CC(=O)NC3CCNCC3(C)C)nn2)c(C)c1 (stereo not drawn) [CC-176, N-(3,3-Dimethyl-piperidin-4-yl)-2-[4-[[(4-methoxy-2,6-dimethyl-phenyl)sulfonyl]-methyl]-1 H-[1,2,3]triazol-1-yl]-acetamid]",100%
6,"CN1CCN(C2CCC(NC(=O)Cc3nc(CS(=O)(=O)c4cccc(Cl)c4Cl)no3)C(C)(C)C2)CC1 (stereo not drawn) [CC-48, 2-[3-[[(2,3-Dichlor-phenyl)sulfonyl]-methyl]-[1,2,4]oxadiazol-5-yl]-N-[2,2-dimethyl-4-(4-methyl-piperazin-1-yl)-cyclohexyl]-acetamid]",81%
7,"COc1cc(C)c(S(=O)(=O)Cc2cc(C)n(CC(=O)NC3CCC(N4CCCC4)CC3)n2)c(C)c1 (stereo not drawn) [CC-156, 2-[3-[[(4-Methoxy-2,6-dimethyl-phenyl)sulfonyl]-methyl]-5-methyl-1H-pyrazol-1-yl]-N-(4-pyrrolidin-1-yl-cyclohexyl)-acetamid]",98%
8,"Cc1cccc(Cl)c1S(=O)(=O)Cc1noc(CC(=O)N(C2CCC(N(C)C)CC2)C2CC2)n1 (stereo not drawn) [CC-108, 2-[3-[[(2-Chlor-6-methyl-phenyl)sulfonyl]-methyl]-[1,2,4]oxadiazol-5-yl]-N-cyclopropyl-N-(4-dimethylamino-cyclohexyl)-acetamid]",88%
9,"COc1cc(C)c(S(=O)(=O)Cc2noc(CC(=O)NC3CCNCC3(C)C)n2)c(C)c1 (stereo not drawn) [CC-18, N-(3,3-Dimethyl-piperidin-4-yl)-2-[3-[[(4-methoxy-2,6-dimethyl-phenyl)sulfonyl]-methyl]-[1,2,4]oxadiazol-5-yl]-acetamid]",100%
10,"COc1cc(C)c(S(=O)(=O)Cc2cn(CC(=O)NC3CCNCC3)nn2)c(C)c1 [CC-182, 2-[4-[[(4-Methoxy-2,6-dimethyl-phenyl)sulfonyl]-methyl]-1H-[1,2,3]triazol-1-yl]-N-piperidin-4-yl-acetamid]",99%
11,"Cc1cccc(Cl)c1S(=O)(=O)Cc1noc(C(=O)NC2CCN(c3ccc(C(F)(F)F)cn3)CC2)n1 [CC-09, 3-[[(2-Chlor-6-methyl-phenyl)sulfonyl]-methyl]-N-[1-[5-(trifluormethyl)-pyridin-2-yl]-piperidin-4-yl]-[1,2,4]oxadiazol-5-carbonsäure amid]",54%
12,"COc1cc(C)c(S(=O)(=O)Cc2noc(CC(=O)NC3CCC(N4CCCC4)CC3(C)C)n2)c(C)c1 (stereo not drawn) [CC-23, N-(2,2-Dimethyl-4-pyrrolidin-1-yl-cyclohexyl)-2-[3-[[(4-methoxy-2,6-dimethyl-phenyl)sulfonyl]-methyl]-[1,2,4]oxadiazol-5-yl]-acetamid]",100%
13,"Cc1cc(S(=O)(=O)Cc2noc(CC(=O)NC3CCC(N4CCCC4)CC3)n2)c(C)cc1Cl (stereo not drawn) [CC-70, 2-[3-[[(4-Chlor-2,5-dimethyl-phenyl)sulfonyl]-methyl]-[1,2,4]oxadiazol-5-yl]-N-(4-pyrrolidin-1-yl-cyclohexyl)-acetamid]",93%
14,"COc1cc(C)c(S(=O)(=O)Cc2nc(CC(=O)NC3CCC(NC4CC4)CC3(C)C)no2)c(C)c1 (stereo not drawn) [CC-35, N-[4-(Cyclopropylamino)-2,2-dimethyl-cyclohexyl]-2-[5-[[(4-methoxy-2,6-dimethyl-phenyl)sulfonyl]-methyl]-[1,2,4]oxadiazol-3-yl]-acetamid]",100%
15,"Cc1cccc(Cl)c1S(=O)(=O)Cc1noc(CC(=O)NC2CCC(NC3CC3)CC2(C)C)n1 (stereo not drawn) [CC-95, 2-[3-[[(2-Chlor-6-methyl-phenyl)sulfonyl]-methyl]-[1,2,4]oxadiazol-5-yl]-N-[4-(cyclopropylamino)-2,2-dimethyl-cyclohexyl]-acetamid]",100%
16,"COc1cc(C)c(S(=O)(=O)Cc2cc(C)n(CC(=O)NC3CCC(c4ccncc4)CC3(C)C)n2)c(C)c1 (stereo not drawn) [CC-127, N-(2,2-Dimethyl-4-pyridin-4-yl-cyclohexyl)-2-[3-[[(4-methoxy-2,6-dimethyl-phenyl)sulfonyl)-methyl]-5-methyl-1 H-pyrazol-1-yl]-acetamid]",68%
17,"COCCN1CCC(NC(=O)Cc2nc(CS(=O)(=O)c3cc(C)c(Cl)cc3C)no2)C(C)(C)C1 (stereo not drawn) [CC-77, 2-[3-[[(4-Chlor-2,5-dimethyl-phenyl)sulfonyl]-methyl]-[1,2,4]oxadiazol-5-yl]-N-[1-(2-methoxy-ethyl)-3,3-dimethyl-piperidin-4-yl]-acetamid]",80%
18,"Cc1cc(S(=O)(=O)Cc2noc(CC(=O)NC3CCC(NC4CC4)CC3(C)C)n2)c(C)cc1Cl (stereo not drawn) [CC-57, 2-[3-[[(4-Chlor-2,5-dimethyl-phenyl)sulfonyl]-methyl]-[1,2,4]oxadiazol-5-yl]-N-[4-(cyclopropyl-amino)-2,2-dimethyl-cyclohexyl]-acetamid]",100%

# The remaining lines, values ahead:
row,inhibition at 10 µM,Compound
1,90%,"COc1cc(C)c(S(=O)(=O)Cc2c(C)nn(CC(=O)N3CCC(CN4CCN(C)CC4)C3)c2C)c(C)c1 (stereo not drawn) [SC-92, 2-[4-[[(4-Methoxy-2,6-dimethyl-phenyl)sulfonyl]-methyl]-3,5-dimethyl-1H-pyrazol-1-yl]-1-[3-[(4-methyl-piperazin-1-yl)-methyl]-pyrrolidin-1-yl]-ethanon]"
2,99%,"COc1cc(C)c(S(=O)(=O)Cc2noc(C(=O)N3CCC4(CCC(Oc5ccncc5)CC4)CC3)n2)c(C)c1 [SC-09, [3-[[(4-Methoxy-2,6-dimethyl-phenyl)sulfonyl]-methyl]-[1,2,4]oxadiazol-5-yl]-(9-pyridin-4-yloxy-3-azaspiro[5.5]undecan-3-yl)-methanon]"
3,98%,"COc1cc(C)c(S(=O)(=O)Cc2noc(CC(=O)NC3CCOCC3(C)C)n2)c(C)c1 (stereo not drawn) [SC-36, N-(3,3-Dimethyl-tetrahydro-pyran-4-yl)-2-[3-[[(4-methoxy-2,6-dimethyl-phenyl)sulfonyl]-methyl]-[1,2,4]oxadiazol-5-yl]-acetamid]"
4,100%,"COc1cc(C)c(S(=O)(=O)Cc2noc(CC(=O)N(C)C3CCN(Cc4cc(C)no4)CC3)n2)c(C)c1 [SC-72, 2-[3-[[(4-Methoxy-2,6-dimethyl-phenyl)sulfonyl]-methyl]-[1,2,4]oxadiazol-5-yl]-N-methyl-N-[1-[(3-methyl-isoxazol-5-yl)-methyl]-piperidin-4-yl]-acetamid]"
5,100%,"COc1cc(C)c(S(=O)(=O)Cc2noc(CC(=O)N(C)C3CCC(N4CCN(C)CC4)CC3)n2)c(C)c1 (stereo not drawn) [SC-58, 2-[3-[[(4-Methoxy-2,6-dimethyl-phenyl)sulfonyl]-methyl]-[1,2,4]oxadiazol-5-yl]-N-methyl-N-[4-(4-methyl-piperazin-1-yl)-cyclohexyl]-acetamid]"
6,99%,"COc1cc(C)c(S(=O)(=O)Cc2noc(C(=O)NC3CCC(Cc4ccncc4)CC3)n2)c(C)c1 (stereo not drawn) [SC-19, 3-[[(4-Methoxy-2,6-dimethyl-phenyl)sulfonyl]-methyl]-N-[4-(pyridin-4-yl-methyl)-cyclohexyl]-[1,2,4]oxadiazol-5-carbonsäure amid]"
7,100%,"COc1cc(C)c(S(=O)(=O)Cc2noc(C(=O)N(C)[C@H]3CCC[C@@H](N4CCN(C)CC4)C3)n2)c(C)c1 [SC-43, 3-[[(4-Methoxy-2,6-dimethyl-phenyl)sulfonyl]-methyl]-N-methyl-N-[(1S,3R)-3-(4-methyl-piperazin-1-yl)-cyclohexyl]-[1,2,4]oxadiazol-5-carbonsäure amid]"
8,100%,"COc1cc(C)c(S(=O)(=O)Cc2noc(CC(=O)NC3CCC(N4CCN(C)CC4)CC3(C)C)n2)c(C)c1 (stereo not drawn) [SC-13, N-[2,2-Dimethyl-4-(4-methyl-piperazin-1-yl)-cyclohexyl]-2-[3-[[(4-methoxy-2,6-dimethyl-phenyl)sulfonyl]-methyl]-[1,2,4]oxadiazol-5-yl]-acetamid]"

# — patent EP2857388A1, “Azoles containing sulfone” (Grünenthal GmbH, priority 2013, dated 2015)
